Assay results: ChEMBL document CHEMBL1201862, “PubChem BioAssay data set” (2004)
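Cultured in 96-well plates, cells were exposed to test compound for 48 hours across five concentrations. GI50 = concentration required for 50% inhibition of growth.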 Active and inactive are the calls of the source. No stated cut-off is given here; in the data, active = GI50 up to about 1.1 µM and inactive = higher.

Tests used:
Test in all cases: NCI tumour cell line growth inhibition, 48 h
M14 = tested on: M14
Malme-3M = tested on: Malme-3M
SNB-19 = tested on: SNB-19
T47D = tested on: T47D
BT-549 = tested on: BT-549
SNB-75 = tested on: SNB-75
HOP-92 = tested on: HOP-92
SR = tested on: SR
MDA-N = tested on: MDA-N
MDA-MB-435 = tested on: MDA-MB-435
DU-145 = tested on: DU-145
NCI/ADR-RES = tested on: NCI/ADR-RES
SK-MEL-5 = tested on: SK-MEL-5
MDA-MB-231 = tested on: MDA-MB-231
Hs-578T = tested on: Hs-578T
MCF7 = tested on: MCF7
PC-3 = tested on: PC-3
DMS-114 = tested on: DMS-114
SW-620 = tested on: SW-620
786-0 = tested on: 786-0

Measured: GI50

O=C1CCCC/C1=C1/SC(=N/c2ccccc2)/C(=N\c2ccccc2)N1c1ccccc1
inactive: M14 > 100 µM | Malme-3M > 100 µM | SNB-19 > 100 µM | T47D > 100 µM | BT-549 > 100 µM | SNB-75 69.5 µM | HOP-92 > 100 µM | SR > 100 µM | MDA-N > 100 µM | MDA-MB-435 > 10 µM | DU-145 56.8 µM | NCI/ADR-RES > 100 µM | SK-MEL-5 > 10 µM | MDA-MB-231 > 100 µM | Hs-578T 78.3 µM | MCF7 68.7 µM | PC-3 > 10 µM

O=C(NNC(=S)Nc1ccccc1)c1nsc2ccccc12
inactive: M14 14.3 µM | SNB-19 34.9 µM | SNB-75 25.1 µM | HOP-92 20.4 µM | SR 22 µM | DMS-114 24.9 µM | SK-MEL-5 24.6 µM | SW-620 40.6 µM

CCNC(=S)NNC(=O)c1nsc2ccccc12
inactive: M14 > 100 µM | SNB-19 > 100 µM | SNB-75 34.5 µM | HOP-92 85.7 µM | SR 64 µM | DMS-114 95.5 µM | SK-MEL-5 64.6 µM | SW-620 > 100 µM

COc1ccc(/C=C2\CCC/C(=C\c3ccc(O)c(CN4CCCCC4)c3)C2=O)cc1
inactive: M14 4.06 µM | Malme-3M 11.5 µM | SNB-19 23.4 µM | T47D 19.3 µM | BT-549 4.65 µM | SNB-75 12.6 µM | HOP-92 9.79 µM | SR 1.35 µM | MDA-N 3.55 µM | MDA-MB-435 3.1 µM | 786-0 4.17 µM | DU-145 9.02 µM | NCI/ADR-RES 2.77 µM | SK-MEL-5 4.25 µM | MDA-MB-231 4.09 µM | Hs-578T 11.5 µM | SW-620 3.33 µM | MCF7 3.73 µM | PC-3 4.74 µM

O[C@H]1[C@H]2[C@H](O)CCCN2C[C@H]1O [TRIDOLGOSIR]
inactive: M14 > 100 µM | Malme-3M > 100 µM | SNB-19 > 100 µM | SNB-75 > 100 µM | HOP-92 > 100 µM | 786-0 > 100 µM | DMS-114 > 100 µM | SK-MEL-5 > 100 µM | SW-620 > 100 µM

O=C(Nc1ccc([N+](=O)[O-])cc1)C(=O)C(C(=O)c1ccccc1F)C1OC(=O)c2ccccc21 (stereo not drawn)
inactive: M14 69.7 µM | SNB-19 26.4 µM | SNB-75 30.2 µM | HOP-92 > 100 µM | SR 21.9 µM | DMS-114 29 µM | SK-MEL-5 48.5 µM | SW-620 49 µM

C=CCOC1OC(CS(=O)(=O)O)C(O)C(O)C1O (stereo not drawn)
inactive: M14 > 100 µM | Malme-3M > 100 µM | SNB-19 > 100 µM | T47D > 100 µM | BT-549 > 100 µM | SNB-75 > 100 µM | HOP-92 > 100 µM | SR > 100 µM | MDA-N > 100 µM | MDA-MB-435 > 100 µM | DU-145 > 100 µM | NCI/ADR-RES > 100 µM | SK-MEL-5 > 100 µM | MDA-MB-231 > 100 µM | Hs-578T > 100 µM | SW-620 > 100 µM | MCF7 > 100 µM | PC-3 > 100 µM

COc1ccc(/N=C\c2ccc(N(CCC#N)S(=O)(=O)c3ccccc3)cc2C)cc1
inactive: M14 14.6 µM | Malme-3M 25.6 µM | SNB-19 > 100 µM | SNB-75 > 100 µM | HOP-92 > 100 µM | SR 7.96 µM | DMS-114 13.2 µM | SK-MEL-5 51.1 µM | SW-620 59.8 µM

COC(=O)CN(C)P(=O)(N1CC1)N1CC1
inactive: M14 > 100 µM | Malme-3M > 100 µM | SNB-19 > 100 µM | SNB-75 > 100 µM | DMS-114 55.1 µM | SK-MEL-5 > 100 µM | SW-620 > 100 µM
